Test results published in patent US20240327852A1, “METHODS OF TRANSFORMATION” (SYNGENTA CROP PROTECTION AG, priority 2019, published 2024).

Tests used:
Format in all cases: in vivo
[1] = test system: soybean (Glycine max) explants; assay: Semi-in-planta soybean transformation, greenhouse bensulfuron-methyl selection for ALS marker, Taqman assay of recovered shoots; settings: for Escape rate / Number of events / TF: 3 weeks greenhouse selection
Experimental: (§1) Sterilized mature soybean (Glycine max) seeds were used. Prior to Agrobacterium inoculation, seeds were soaked in sterilized H2O or liquid medium Soy1 for overnight (12-18 hours) at 22-24° C. Liquid medium Soy 1 contains 3.1 g/L Gamborg's B5 basal medium and 2 mg/L BAP
(§2) The seed coat was removed from the soaked seed. One of the cotyledons and both primary leaves were carefully removed and discarded. Next, the region containing the epicotyl, apical meristem and the cotyledonary node were wounded by making several cuts with the sharp end of scalpel blade.
(§3) Agrobacterium tumefaciens strain [Chry5d3 recA−] was used. The Agrobacterium harbored a binary vector containing a selectable marker and gene of interest, specifically construct 23093 containing EPSPS selectable marker driven by translation elongation factor EF-1 alpha/Tu promoter and AmCyan gene driven by Cestrum Yellow leaf curl virus promoter (prCMP), construct18891 containing codon-optimized Acetolactate synthase (ALS) double mutant (P191A, W568L) from Nicotiana tabacum for soybean and AmCyan gene driven by prCMP, and construct 22296 containing codon-optimized Acetolactate synthase (ALS) double mutant (P191A, W568L) from Nicotiana tabacum for soybean driven by translation elongation factor EF-1 alpha/Tu promoter, including the first intron and neighboring 5′-UTR, from soybean (Williams 82) prGmEF-02. Agrobacterium culture was streaked from −80° C. from glycerol stock onto YP plates containing 100 mg/L ampicillin and 500 mg/L spectinomycin appropriate antibiotics and grown in a 23° C. incubator. Before inoculation with explants, Agrobacterium cells were collected from the plate and were uniformly suspended in liquid infection medium SoyInf in a sterile disposable 50 ml centrifuge tube and diluted to OD A660 of approximately 0.3 to 0.6. A final concentration of 40-80 mg/L (200-400 uM) acetosyringone was added to induce virulence gene expression. Dithiothreitol (DTT) was added to a final concentration of 150 μg/ml. SoyInf contains 1.1 g/L MS basal salt mixture, 20 g/L sucrose, 10 g/L glucose, 4 g/L MES, 1 ml/L Gamborg's B5 vitamins (1000×) and 2 mg/L zeatin riboside.
(§4) The wounded explants were immediately infected with Agrobacterium by immersing them with the Agrobacterium suspension, and then incubated for 18 hours in dark at room temperature. After infection, the explants were removed from the Agrobacterium suspension and transferred to petri dishes for co-cultivation in an airtight plastic container. The co-cultivation plates were incubated for 3-5 days at 22±1° C. in the dark, with explants placed adaxial side up.
(§5) The explants were transplanted to soil for further selection and development of transgenic shoots after immersed in Soy2 medium for 2 day and in Soy2 medium with 2 μM bensulfuron-methyl for 5 days. The selection is performed for three weeks in GH by application with various concentrations of bensulfuron-methyl using mounted cotton ball or daily liquid spay methods. The recovered shoots from each treatment were subjected for Taqman assay to confirm the transgenic frequency. The application solution contains bensulfuron-methyl, 1 g/L MES and BAP (2 mg./L for first week, and 1 mg/L for second and third weeks, or 2 mg/L or 1 mg/l for three weeks). Alternatively, the transplanted explants in soil can be directly spayed with selection solution containing commercial herbicide Ecomazayr (1-8 μM isopropylamine salt of imazapyr), 1-2 mg/L BAP and 1 g/L MES for 3 weeks.
To obtain an optimal selection conditions and methods for ALS selection, a side-by-side comparison experiment was conducted. Transgenic events can be recovered without selection in Greenhouse at more than 18% transformation frequency with 73% escape rate. […] By using cotton ball method for application of bensulfuron-methyl, high transformation frequency (˜40%) with high single copy event rate (50%) was obtained. […]

[2] = test system: soybean (Glycine max) explants; assay: Comparison of greenhouse selection effectiveness between BSU and Ecomazayr for ALS selectable marker
Experimental: as §5
An experiment was conducted to compare the selection effectiveness in greenhouse between BSU and commercial herbicide Ecomazayr for ALS selectable marker using current transformation method.

[3] = test system: soybean (Glycine max) explants; assay: Semi-in-planta soybean transformation, greenhouse glyphosate selection for EPSPS marker, Taqman assay of recovered shoots; settings: 3 weeks greenhouse selection, 48 explants
Experimental: as §1, §2, §3, §4
After 2 day in Soy2 medium and 5 days in Soy2 medium with 100 μM glyphosate, the explants were transplanted to soil for further selection and development of transgenic shoots. The selection is performed for three weeks in GH by application with various concentrations of glyphosate using mounted cotton ball or daily liquid spay methods. The recovered shoots from each treatment were subjected for Taqman assay to confirm the transgenic frequency. The application solution contains glyphosate, 1 g/L MES and BAP (2 mg./L for first week, and 1 mg/L for second and third weeks, or 2 mg/L or 1 mg/l for three weeks).
To obtain an optimal selection conditions and methods for EPSPS selection, a side-by-side comparison experiment was conducted. Transgenic events can be recovered without selection in Greenhouse at 18% transformation frequency with more than 80% escape rate. […] Similar results can also be achieved by daily spay of 150 μM or more of glyphosate with few escapes.

[4] = cotton ball, 3 μM bensulfuron-methyl, 40 explants
[5] = cotton ball, 6 μM bensulfuron-methyl, 48 explants
[6] = cotton ball, 9 μM bensulfuron-methyl, 48 explants
[7] = daily spray, 3 μM bensulfuron-methyl, 48 explants
[8] = daily spray, 4 μM bensulfuron-methyl, 48 explants
[9] = daily spray, 5 μM bensulfuron-methyl, 48 explants
[10] = daily spray, 6 μM bensulfuron-methyl, 48 explants
[11] = daily spray, 7 μM bensulfuron-methyl, 48 explants
[12] = daily spray, 8 μM bensulfuron-methyl, 48 explants
[13] = daily spray, 9 μM bensulfuron-methyl, 48 explants
[14] = daily spray, 10 μM bensulfuron-methyl, 48 explants
[15] = greenhouse selection 3 μM BSU, 56 explants
[16] = greenhouse selection 1 μM imazapyr, 56 explants
[17] = greenhouse selection 2 μM imazapyr, 56 explants
[18] = greenhouse selection 3 μM imazapyr, 56 explants
[19] = greenhouse selection 4 μM imazapyr, 56 explants
[20] = greenhouse selection 5 μM imazapyr, 56 explants
[21] = greenhouse selection 6 μM imazapyr, 56 explants
[22] = greenhouse selection 7 μM imazapyr, 52 explants
[23] = greenhouse selection 8 μM imazapyr, 54 explants

Compound: COC(=O)c1ccccc1CS(=O)(=O)NC(=O)Nc1nc(OC)cc(OC)n1 [bensulfuron-methyl]
- escape events recovered ([1]; 3 μM or higher concentrations of bensulfuron-methyl): No escape event
- Escape rate [1, 4]: 0.0%
- Number of events [1, 4]: 16
- TF [1, 4]: 40.0%
- Escape rate [1, 5]: 0.0%
- Number of events [1, 5]: 13
- TF [1, 5]: 27.1%
- Escape rate [1, 6]: 0.0%
- Number of events [1, 6]: 9
- TF [1, 6]: 18.8%
- Escape rate [1, 7]: 0.0%
- Number of events [1, 7]: 18
- TF [1, 7]: 37.5%
- Escape rate [1, 8]: 0.0%
- Number of events [1, 8]: 10
- TF [1, 8]: 20.8%
- Escape rate [1, 9]: 0.0%
- Number of events [1, 9]: 10
- TF [1, 9]: 20.8%
- Escape rate [1, 10]: 0.0%
- Number of events [1, 10]: 10
- TF [1, 10]: 20.8%
- Escape rate [1, 11]: 0.0%
- Number of events [1, 11]: 6
- TF [1, 11]: 12.5%
- Escape rate [1, 12]: 0.0%
- Number of events [1, 12]: 11
- TF [1, 12]: 22.9%
- Escape rate [1, 13]: 0.0%
- Number of events [1, 13]: 12
- TF [1, 13]: 25.0%
- Escape rate [1, 14]: 0.0%
- Number of events [1, 14]: 8
- TF [1, 14]: 16.7%
- Number of escapes [2, 15]: 0
- Number of events [2, 15]: 12
- Transformation frequency (%) [2, 15]: 21.4%

Compound: O=C(O)CNCP(=O)(O)O [glyphosate]
- Escape rate ([3]; cotton ball, 100 μM glyphosate): 2.1%
- Number of events ([3]; cotton ball, 100 μM glyphosate): 16
- Transformation Frequency ([3]; cotton ball, 100 μM glyphosate): 33.3%
- Escape rate ([3]; cotton ball, 125 μM glyphosate): 0.0%
- Number of events ([3]; cotton ball, 125 μM glyphosate): 25
- Transformation Frequency ([3]; cotton ball, 125 μM glyphosate): 52.1%
- Escape rate ([3]; cotton ball, 150 μM glyphosate): 0.0%
- Number of events ([3]; cotton ball, 150 μM glyphosate): 24
- Transformation Frequency ([3]; cotton ball, 150 μM glyphosate): 50.0%
- Number of events ([3]; cotton ball, 175 μM glyphosate): 23
- Transformation Frequency ([3]; cotton ball, 175 μM glyphosate): 47.9%
- Escape rate ([3]; daily spray, 100 μM glyphosate): 2.1%
- Number of events ([3]; daily spray, 100 μM glyphosate): 11
- Transformation Frequency ([3]; daily spray, 100 μM glyphosate): 22.9%
- Escape rate ([3]; daily spray, 125 μM glyphosate): 6.3%
- Number of events ([3]; daily spray, 125 μM glyphosate): 13
- Transformation Frequency ([3]; daily spray, 125 μM glyphosate): 27.1%
- Escape rate ([3]; daily spray, 150 μM glyphosate): 2.1%
- Number of events ([3]; daily spray, 150 μM glyphosate): 20
- Transformation Frequency ([3]; daily spray, 150 μM glyphosate): 41.7%
- Escape rate ([3]; daily spray, 175 μM glyphosate): 6.3%
- Number of events ([3]; daily spray, 175 μM glyphosate): 22
- Transformation Frequency ([3]; daily spray, 175 μM glyphosate): 45.8%
- Escape rate ([3]; daily spray, 200 μM glyphosate): 6.3%
- Number of events ([3]; daily spray, 200 μM glyphosate): 20
- Transformation Frequency ([3]; daily spray, 200 μM glyphosate): 41.7%
- Escape rate ([3]; daily spray, 250 μM glyphosate): 4.2%
- Number of events ([3]; daily spray, 250 μM glyphosate): 15
- Transformation Frequency ([3]; daily spray, 250 μM glyphosate): 31.3%
- Escape rate ([3]; daily spray, 300 μM glyphosate): 2.1%
- Number of events ([3]; daily spray, 300 μM glyphosate): 23
- Transformation Frequency ([3]; daily spray, 300 μM glyphosate): 47.9%

Compound: CC(C)C1(C)N=C(c2ncccc2C(=O)O)NC1=O (stereo not shown) [imazapyr]
- selection effectiveness in greenhouse ([2]; ALS selectable marker, recovery of ALS transgenic plants): as effective as BSU
- Number of escapes [2, 16]: 1
- Number of events [2, 16]: 15
- Transformation frequency (%) [2, 16]: 26.8%
- Number of escapes [2, 17]: 0
- Number of events [2, 17]: 12
- Transformation frequency (%) [2, 17]: 21.4%
- Number of escapes [2, 18]: 0
- Number of events [2, 18]: 20
- Transformation frequency (%) [2, 18]: 35.7%
- Number of escapes [2, 19]: 0
- Number of events [2, 19]: 14
- Transformation frequency (%) [2, 19]: 25.0%
- Number of escapes [2, 20]: 0
- Number of events [2, 20]: 8
- Transformation frequency (%) [2, 20]: 14.3%
- Number of escapes [2, 21]: 0
- Number of events [2, 21]: 10
- Transformation frequency (%) [2, 21]: 17.9%
- Number of escapes [2, 22]: 0
- Number of events [2, 22]: 10
- Transformation frequency (%) [2, 22]: 19.2%
- Number of escapes [2, 23]: 0
- Number of events [2, 23]: 10
- Transformation frequency (%) [2, 23]: 18.5%
